Experimental data as given in publication PMC11328113, “Dissecting the functional behavior of the differentially phosphorylated prolyl isomerase, Pin1” (Protein Science : A Publication of the Protein Society, 2024).
Blank lines part the entries; values can stand above or below the molecule they belong to. Where a SMILES comes first, the peptide text is derived from it. Where no end group is shown, it is not given here. [ ]: non-standard residue; d: D form. The star is where a group is joined. FITC = O=C1OC2(c3ccc(O)cc3Oc3cc(O)ccc32)c2ccc(NC(=S)*)cc21; pS = N[C@@H](COP(=O)(O)O)C(=O)O; Ahx = NCCCCCC(=O)O

Columns and labels:
Pin1 [1] = biological target: T1, Pin1 (Homo sapiens, UniProt Q13526); test: Fluorescence polarization, FITC-Pintide binding to Pin1; conditions: fluorescently labelled Pintide 10 nM; FP, room temperature, 5 mM HEPES pH 7.4, 30 mM NaCl, 0.1% Tween20, 1% DMSO; triplicates; read-out: apparent Kd (Pin1 titration to fluorescently labelled Pintide)
T1 construct: His6 (TEV-cleavable) (N, cleaved yes); host or cells: E. coli BL21 (DE3)
Experimental: FP experiments were conducted using a fluorescein (FITC)‐labeled “Pintide” [5‐FITC‐(Ahx)‐WFY(pS)PFLE‐CONH2] purchased from China Peptides. FP data were collected at room temperature in buffer containing 5 mM HEPES pH 7.4, 30 mM NaCl, 0.1% v/v Tween20, and 1% v/v DMSO using Corning black, round‐bottom, low‐binding 384‐well plates. For all experiments, a fixed concentration of 10 nM fluorescently labeled Pintide and 40 μM of Pin1 protein was used. All plates were incubated for 10 min and shaken for 10 s before polarization was measured using a CLARIOstar Plus microplate reader with an excitation wavelength of 482/16 nm and an emission wavelength of 530/40 nm; dichroic mirror 504; flashes: 200. All data were analyzed using GraphPad Prism 7, and sigmoidal curves were fitted using the following Equation: Y=Bottom+Top−Bottom/1+10^Logt1/2−X*HillSlope. where Y = mP value, X = time, and Top and bottom = plateaus in mP.
Figure S1. (a) Fluorescence polarisation data for Pin1 titration to fluorescently labelled Pintide (10 nM). The apparent Kd was 0.7 µM. […] (b) Fluorescence polarisation control data showing polarisation, mP values, for the fluorescently labelled Pintide alone (Only Pintide, black), PKA in the presence of Pintide without Pin1 at 1 min and 24 h time points, and Pin1 in the presence of Pintide without PKA at 1 min and 24 h time points. […]

Pin1 [2] = biological target: T1, Pin1; test: Native MS of Pintide bound to differentially phosphorylated Pin1; format: binding; conditions: for % Pintide bound: 2.5 μM : 25 μM Pin1 : Pintide, 100 mM ammonium acetate, mean ± SD, triplicate
Experimental: (§1) To phosphorylate Pin1 for the native MS analysis, Pin1 (10 μM) was incubated at 30°C with 2 mM ATP, 10 mM MgCl2 (BDH Laboratory supplies), and 10,000 units PKA in 100 mM ammonium acetate pH 6.8 for 1, 3, 8, and 24 h. The concentration of PKA and Pin1 was optimized in order to detect sequential phosphorylation within the time course. At each time‐point, aliquots were taken, the reaction quenched by addition of EDTA (final concentration 20 mM), and the sample buffer exchanged using 3 kDa Amicon Ultra 0.5 mL centrifugal concentrators into 100 mM ammonium acetate pH 6.8 prior to MS analysis. Phosphorylation assays at each time‐point were carried out in triplicates, and the error was reported as the standard deviation.
Unlabeled Pintide [AcHN‐WFY(pS)PFLE‐CONH2] was purchased from China Peptides and dissolved in 100 mM ammonium acetate pH 8 to a final concentration of 1 mg/mL and stored at −80°C until use. To determine the affinity of […] for differentially phosphorylated Pin1, Pintide was added to each Pin1 phosphorylation time‐point at a 2.5 μM: 25 μM Pin1 to Pintide ratio and the sample was directly infused into the mass spectrometer. Experiments were carried out in triplicates, and the error was reported as the standard deviation.
(§2) All native MS was performed on a QExactive HF mass spectrometer (Thermo Fisher Scientific) equipped with a nanoelectrospray ionization source that used gold‐coated borosilicate glass capillaries, pulled in‐house. Positive ionization mode was used throughout, with the capillary voltage set to 1.2 kV. The source temperature was set at 250°C, in source dissociation at 0, S‐lens RF at 100. The Pin1 concentration was set to 2.5 μM and a mass range of 1500–4000 m/z was acquired. Mass spectra were acquired using a maximum ion injection time of 100 ms. The automatic gain control was set to 1 x 10^6 and the ions detected in the orbitrap with resolution set to 15,000. All data were analyzed using XCalibur (version 4.2). To quantify the abundance of unphosphorylated, phosphorylated Pin1 and Pin1‐Pintide complexes, the relative abundance of the peaks corresponding to the specific 9+, 8+, and 7+ Pin1 species of interest was summed and expressed as a percentage of all Pin1‐containing peaks detected.

[3] = test system: cAMP-dependent protein kinase (PKA); test: LC-MS/MS phosphosite occupancy of Pin1 upon incubation with PKA (Lys-C digestion); format: biochemical; conditions: triplicate
Experimental: as §1
Phosphorylated Pin1 was digested with either trypsin (Promega) or the endoproteinase Lys‐C (Promega) at a 1:50 ratio of enzyme: protein. To localize the phosphorylation sites, trypsin digestion was performed. To quantify the phosphosite occupancy over the phosphorylation time‐course, differentially phosphorylated Pin1 was digested with Lys‐C. For both enzymatic reactions, Pin1 was digested in 100 mM ammonium bicarbonate pH 8.0 for 3 h at 37°C, and the reaction was quenched by the addition of formic acid (2% v/v final concentration). All peptides were separated using an UltiMate 3000 HPLC series, which was either coupled to a QExactive HF or Orbitrap Eclipse mass spectrometer (Thermo Fisher Scientific). […] To quantify the extent of phosphorylation on Pin1, MS/MS was performed on the QExactive HF mass spectrometer. […]
To quantify the abundance of phosphorylated peptides, the retention time of the eluted peptides was identified using Proteomic Discoverer v.2.5. Spectra were averaged across the peptides chromatographic peak, and the percentage of phosphorylated peptide was calculated as a percentage of the total abundance of unphosphorylated and phosphorylated peptide. Full details of the peptides used for quantitation are detailed in the Supporting Information (Table S4).

[4] = test system: cAMP-dependent protein kinase (PKA); test: LC-MS/MS (EThcD) of additional Pin1 phosphosites after PKA incubation (trypsin digestion); format: biochemical; conditions: 24 h with PKA, not consistently detected across timepoints
Experimental: Phosphorylated Pin1 was digested with either trypsin (Promega) or the endoproteinase Lys‐C (Promega) at a 1:50 ratio of enzyme: protein. To localize the phosphorylation sites, trypsin digestion was performed. To quantify the phosphosite occupancy over the phosphorylation time‐course, differentially phosphorylated Pin1 was digested with Lys‐C. For both enzymatic reactions, Pin1 was digested in 100 mM ammonium bicarbonate pH 8.0 for 3 h at 37°C, and the reaction was quenched by the addition of formic acid (2% v/v final concentration). All peptides were separated using an UltiMate 3000 HPLC series, which was either coupled to a QExactive HF or Orbitrap Eclipse mass spectrometer (Thermo Fisher Scientific). Peptides were desalted on a PepMap100 C18 nanoViper trap column (75 μM x 2 cm, […] particle size) (Thermo Fisher Scientific) and separated with a PepMap100 C18 nanoViper analytical column (75 μM x 15 cm, […] particle size) (Thermo Fisher Scientific) using mobile phase A (H2O and 0.1% formic acid) and mobile phase B (100% acetonitrile and 0.1% formic acid) and eluted using a gradient from […] to 44% B over 30 min. The column flow rate was set to 350 nL/min with the column temperature set at 40°C. To quantify the extent of phosphorylation on Pin1, MS/MS was performed on the QExactive HF mass spectrometer. […]
To prevent phospho‐loss resulting in misassignment of the phosphosite location (Boersema et al., [2009]), electron transfer dissociation with supplemental HCD (EThcD) was performed on the trypsin‐digested peptides to localize the phosphosites. […] ETD was performed using an automatically determined reagent time set based on precursor charge state. […] Fragment ions were detected in the Orbitrap using a resolution setting of 30,000. […]
All RAW files were processed and analyzed using Proteome Discoverer version 2.5. […] Additional phosphosites, Ser58, Ser65, and Ser67 (Table S4) were detected after 24 h of incubation with PKA, however, these were not consistently detected across all timepoints and, therefore, were excluded from phosphosite quantitation. […]

[5] = test system: cAMP-dependent protein kinase (PKA); test: Native MS of Pin1 phosphorylation by PKA; format: biochemical; conditions: 30°C, pH 6.8, mean ± SD, triplicate
Experimental: as §1, §2

Pin1 [6] = biological target: T1, Pin1; test: Chymotrypsin-coupled Pin1 PPIase assay (suc-AEPF-pNA); format: biochemical; conditions: in the absence of PKA, 4°C, pH 7.8
Experimental: To perform the FP and enzymatic activity assays, Pin1 was phosphorylated by incubation of 40 μM Pin1 with 10,000 units of cAMP‐dependent protein kinase (PKA) (New England BioLabs) in kinase buffer (50 mM Tris‐HCl, 10 mM MgCl2, 1 mM DTT, and pH 7.5) supplemented with 2 mM adenosine triphosphate (ATP) (New England BioLabs) at 37°C. At 1 min, 1 h, 3 h, 8 h, 12 h, 18 h, 24 h, and 32 h, aliquots were taken, and PKA activity was stopped by addition of 20 mM EDTA, and the samples were kept at −80°C prior to analysis.
Pin1 (phosphorylated or non‐phosphorylated, 80 nM), in buffer containing 35 mM HEPES, pH 7.8, was incubated with 30 mg/mL ice‐cold chymotrypsin (diluted in 1 mM HCl) (Sigma‐Aldrich) and 2.5 mM of PPIase substrate (Suc‐AEPF‐pNA in 460 mM LiCl in trifluoroethanol) (#SAP‐3947‐PI, Vivitide) in a 1 mL cuvette. pNA release was measured at 4°C for 1 min on a Cary 300 UV–visible spectrophotometer using an absorption wavelength at 390 nm.
The data were collected in triplicate and analyzed using GraphPad Prism 7. The data were reported as the mean ± standard error of the mean.

[7] = biological target: Pin1 phosphorylated at Ser71 (singly phosphorylated Pin1) (UniProt Q13526); test: fluorescence polarisation; time course: Pin1 (40 uM) incubated with PKA and ATP at 37 C for 1 min to 32 h, stopped with 20 mM EDTA, then 10 nM FITC-Pintide; room temperature, 5 mM HEPES pH 7.4, 30 mM NaCl, 0.1% Tween20, 1% DMSO; control without PKA
Pin1 phosphorylated at Ser71 (singly phosphorylated Pin1), sequence (Q13526 whole entry): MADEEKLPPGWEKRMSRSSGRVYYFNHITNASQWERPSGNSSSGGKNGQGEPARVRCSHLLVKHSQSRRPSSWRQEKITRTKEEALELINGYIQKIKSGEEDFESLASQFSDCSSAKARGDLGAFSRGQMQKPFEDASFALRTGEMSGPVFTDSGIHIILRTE

T1 sequence (Q13526 whole entry): as above

Kd (Pin1 [1]): 700 nM
Molecule: CC(C)C[C@H](NC(=O)[C@H](Cc1ccccc1)NC(=O)[C@@H]1CCCN1C(=O)[C@H](COP(=O)(O)O)NC(=O)[C@H](Cc1ccc(O)cc1)NC(=O)[C@H](Cc1ccccc1)NC(=O)[C@H](Cc1c[nH]c2ccccc12)NC(=O)CCCCCNC(=S)Nc1ccc2c(c1)C(=O)OC21c2ccc(O)cc2Oc2cc(O)ccc21)C(=O)N[C@@H](CCC(=O)O)C(N)=O [FITC‐Pintide, 5‐FITC‐(Ahx)‐WFY(pS)PFLE‐CONH2] ({FITC-Ahx}-WFY[pS]PFLE-NH2)

% Pintide bound (Pin1 [2]; 0 phosphosites on Pin1): 39 ± 5%
% Pintide bound (Pin1 [2]; 1 phosphosite on Pin1, * p <0.05 (ANOVA, Tukey HSD)): 26 ± 6* %
% Pintide bound (Pin1 [2]; 2 phosphosites on Pin1, ** p <0.01 (ANOVA, Tukey HSD)): 4 ± 1** %
Pin1 binding to Pintide (Pin1 [2]; Pin1 phosphorylated at Ser71, versus unphosphorylated, native MS): small, yet significant, difference
Molecule: AcHN‐WFY(pS)PFLE‐CONH2 [Pintide]

Further lines, the molecule ahead of its results:

Molecule: Pin1: peptidyl‐prolyl cis‐trans isomerase comprising N-terminal WW domain and C-terminal PPIase domain
phosphorylation occupancy of Ser16 ([3]; 1 h incubation with PKA): 4%
phosphorylation occupancy of Ser71 ([3]; 1 h incubation with PKA): ~ 90%
phosphorylation occupancy of Ser16 ([3]; 24 h incubation with PKA): ~ 80%
Phosphorylation Stoichiometry (24h), Ser58 [4]: 0.19
Phosphorylation Stoichiometry (24h), Ser65 [4]: 0.05
Phosphorylation Stoichiometry (24h), Ser67 [4]: 0.05
relative abundance of doubly phosphorylated Pin1 ([5]; 3 h incubation with PKA): ~ 65 ± 23%
relative abundance of doubly phosphorylated Pin1 ([5]; 8 h incubation with PKA): 85% ± 11
relative abundance of Pin1 with two phosphorylation sites ([5]; 24 h incubation with PKA): 95% ± 0.01
absorption at 390 nm upon addition of Pin1 to the substrate (catalytic activity) (Pin1 [6]): increased

B1: FITC-Pintide [5-FITC-(Ahx)-WFY(pS)PFLE-CONH2] (peptide)
peptide: WFY[pS]PFLE-NH2
modifications: not fully specified (N-terminus); printed as 5‐FITC‐(Ahx)‐WFY(pS)PFLE‐CONH_2_
% of binding inhibited after 1 h with PKA [7]: 16%
